Source: BigSolDB 2.1

O=c1c(-c2ccc(O)cc2)coc2cc(O[C@@H]3O[C@H](CO)[C@@H](O)[C@H](O)[C@H]3O)cc(O)c12
solubility (mole fraction)
Details | 283.2 K | 293.2 K | 303.2 K | 313.2 K | 323.2 K
in THF | 8.67e-05 | 0.000101 | 0.000123 | 0.000149 | 0.000186
in acetone | 0.000354 | 0.000361 | 0.000369 | 0.000382 | 0.000388
in acetonitrile | 1.15e-06 | 1.61e-06 | 2.15e-06 | 2.62e-06 | 3.12e-06
in chloroform | 2.86e-07 | 3.37e-07 | 4.14e-07 | 5.02e-07 | 6.54e-07
in cyclohexane | 2.66e-07 | 4.59e-07 | 6.56e-07 | 9.11e-07 | 1.25e-06
in ethanol | 2.63e-05 | 2.85e-05 | 3.28e-05 | 3.72e-05 | 4.38e-05
in ethyl acetate | 1.17e-06 | 1.52e-06 | 1.99e-06 | 2.55e-06 | 3.25e-06
in isopropanol | 7.95e-06 | 1.05e-05 | 1.34e-05 | 1.71e-05 | 2.2e-05
in methanol | 5e-05 | 5.54e-05 | 5.91e-05 | 6.44e-05 | 7.04e-05
in n-butanol | 4.78e-06 | 8.48e-06 | 1.25e-05 | 1.56e-05 | 1.91e-05
in n-hexane | 3.64e-07 | 4.87e-07 | 6.47e-07 | 8.58e-07 | 1.14e-06
